We go through 26 compounds from patent publication US11104690B2, “Indazole derivatives useful as inhibitors of diacylglyceride O-acyltransferase 2” (Merck Sharp & Dohme Corp., priority 2016, dated 2021).

In this assay the target is Human DGAT2 (Homo sapiens (Human), UniProt Q96PD7). Kind of assay: DGAT2 Enzymatic Activity Assay (triolein formation, LC/MS/MS). The conditions noted are these: hDGAT2 Sf-9 membrane prep; 25 μM diolein, 10 μM oleoyl-CoA; room temperature. Format: biochemical. Here is the method:
Sf-9 insect cells were maintained in Grace's insect cell culture medium with 10% heated-inactivated fetal bovine serum, 1% Pluronic F-68 and 0.14 μg/m Kanamycine sulfate in Erlenmeyer flasks at 28° C. in a shaker incubator. After infection with untagged hDGAT2 baculovirus at multiplicity of infection (MOI) 0.1 for 48 hours, cells were harvested. Cell pellets were suspended in buffer containing 10 mM Tris-HC (pH 7.5), 1 mM EDTA (pH 8.0), 250 mM sucrose and Complete Protease Inhibitor Cocktail (Roche Diagnostics Corp., Indianapolis, Ill.), and sonicated on ice. Membrane fractions were isolated by ultracentrifugation (100,000×g pellet), resuspended in the same buffer, and frozen (−80° C.) for later use. The protein concentration was determined with the BCA Protein Assay kit (Pierce Biotechnology Inc., Rockford, Ill.). Expression of protein levels was analyzed by immunoblotting with goat polyclonal DGAT2 antibody C-15 and donkey anti-goat IgG HRP (Santa Cruz Biotechnology, Inc., Santa Cruz, Calif.) followed by detection with ECL reagent (GE Healthcare, Piscataway, N.J.).
LC/MS/MS analyses were performed using Thermal Fisher's LX4-TSQ Vantage system. This system consists of an Agilent binary high-performance liquid chromatography (HPLC) pumps and a TSQ Vantage triple quadrupole MS/MS instrument. For each sample, 2 μL samples from the top organic layer of in-plate liquid-liquid extraction were injected onto a Thermo Betabasic C4 column (2.1 mm×20 mm, 5 μm particle size). The samples were then eluted using the following conditions; mobile phase: MeOH/water with 0.1% ammonium format=92/8 (v/v), flow rate: 1 mL/min, temperature: 25 C. Data was acquired in positive mode using a heated electrospray ionization (HESI) interface. The operational parameters for the TSQ Vantage MS/MS instrument were a spray voltage of 3000 V, capillary temperature of 280° C., vaporizer temperature 400° C., shealth gas 60 arbitrary unit, Aux gas 40 arbitrary units, S-lens 113 and collision gas 0.16 Pascals. […] (SRM) chromatograms of triolein (Q1: 902.9>Q3:602.3) and internal standard ([…]) were collected for 40 sec. The peak area was integrated by Xcalibur Quan software. The ratio between the triolein generated in the reaction and spiked in internal standard was used to generate percentage inhibition and IC50 values. Compound percentage inhibition was calculated by the following formula: Inhibition %=1−[(compound response−low control)/(high control−low control)]×100%. Potent compounds were titrated and IC50 were calculated by 4 parameter sigmoidal curve fitting formula.
DGAT2 activity was determined by measuring the amount of enzymatic product triolein (1,2,3-Tri(cis-9-octadecenoyl)glycerol) using the membrane prep mentioned above. The assay was carried out in deep well 384 plates in a final volume of 40 μL at room temperature. The assay mixture contained the following: assay buffer (100 mM Tris.Cl, pH 7.0, 20 mM MgCl2, 5% ethanol), 25 μM of diolein, 10 μM of oleoyl-CoA and 10 ng/μL of DGAT2 membrane.

Sequence of Human DGAT2 (Q96PD7 whole entry): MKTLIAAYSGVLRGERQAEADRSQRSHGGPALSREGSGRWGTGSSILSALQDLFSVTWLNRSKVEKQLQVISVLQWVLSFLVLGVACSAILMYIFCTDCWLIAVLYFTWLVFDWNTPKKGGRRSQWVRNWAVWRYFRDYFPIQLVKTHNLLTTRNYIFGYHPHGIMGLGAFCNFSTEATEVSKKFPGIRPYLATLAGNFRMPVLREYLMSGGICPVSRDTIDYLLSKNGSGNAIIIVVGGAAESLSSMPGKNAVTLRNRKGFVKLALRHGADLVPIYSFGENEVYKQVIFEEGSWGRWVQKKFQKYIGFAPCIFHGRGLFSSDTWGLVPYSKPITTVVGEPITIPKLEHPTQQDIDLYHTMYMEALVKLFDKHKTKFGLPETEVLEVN

The compound `CN1CCC(NC(=O)c2ccc3c(-c4ccccc4Cl)nn(-c4ccc(F)cc4)c3c2)C1=O` (racemic) [Example 6, 3-(2-chlorophenyl)-1-(4-fluorophenyl)-N-(1-methyl-2-oxopyrrolidin-3-yl)-1H-indazole-6-carboxamide] registered an IC50 of 686 nM. As for `CC(NC(=O)c1ccc2c(-c3ccccc3Cl)nn(-c3ccc(F)cc3)c2c1)c1cn(C(=O)OC(C)(C)C)cn1` (racemic) [Example 7, tert-butyl 4-[1-({[3-(2-chlorophenyl)-1-(4-fluorophenyl)-1H-indazol-6-yl]carbonyl}amino)ethyl]-1H-imidazole-1-carboxylate], the figure is 164 nM; as for `CC(NC(=O)c1ccc2c(-c3ccccc3Cl)nn(-c3ccc(F)cc3)c2c1)c1c[nH]cn1` (racemic) [Example 14, 3-(2-chlorophenyl)-1-(4-fluorophenyl)-N-[1-(1H-imidazol-4-yl)ethyl]-1H-indazole-6-carboxamide], 78 nM; as for `Cc1n[nH]c(C)c1C(C)NC(=O)c1ccc2c(-c3ccccc3Cl)nn(-c3ccc(F)cc3)c2c1` (racemic) [Example 17, 3-(2-chlorophenyl)-N-[1-(3,5-dimethyl-1H-pyrazol-4-yl)ethyl]-1-(4-fluorophenyl)-1H-indazole-6-carboxamide], 83 nM.

Take `CN1CC(NC(=O)c2ccc3c(-c4ccccc4Cl)nn(-c4ccc(F)cc4)c3c2)CC1=O` (racemic) [Example 22, 3-(2-chlorophenyl)-1-(4-fluorophenyl)-N-(1-methyl-5-oxopyrrolidin-3-yl)-1H-indazole-6-carboxamide]: half-maximal inhibition (IC50) was put at 102 nM.

In turn, `O=C(c1ccc2c(-c3ccccc3Cl)nn(-c3ccc(F)cc3)c2c1)N1CC2CC1CS(=O)(=O)C2` (racemic) [Example 23, 3-(2-chlorophenyl)-6-[(3,3-dioxido-3-thia-6-azabicyclo[3.2.1]oct-6-yl)carbonyl]-1-(4-fluorophenyl)-1H-indazole] registered an IC50 of 403 nM.

The compound `CC(c1cc(-c2ccccc2)[nH]n1)N(C)C(=O)c1ccc2c(-c3ccccc3Cl)nn(-c3ccc(F)cc3)c2c1` (racemic) [Example 27, 3-(2-chlorophenyl)-1-(4-fluorophenyl)-N-methyl-N-[1-(5-phenyl-1H-pyrazol-3-yl)ethyl]-1H-indazole-6-carboxamide] yielded an IC50 of 301 nM. As for `O=C(NCC1CCS(=O)(=O)C1)c1ccc2c(-c3ccccc3Cl)nn(-c3ccc(F)cc3)c2c1` (racemic) [Example 29, 3-(2-chlorophenyl)-N-[(1,1-dioxidotetrahydrothiophen-3-yl)methyl]-1-(4-fluorophenyl)-1H-indazole-6-carboxamide], the figure is 65 nM; as for `CC(NC(=O)c1ccc2c(-c3ccccc3Cl)nn(-c3ccc(F)cc3)c2c1)c1nncn1C` (racemic) [Example 36, 3-(2-chlorophenyl)-1-(4-fluorophenyl)-N-[1-(4-methyl-4H-1,2,4-triazol-3-yl)ethyl]-1H-indazole-6-carboxamide], 889 nM. `Cc1nc(C(C)NC(=O)c2ccc3c(-c4ccccc4Cl)nn(-c4ccc(F)cc4)c3c2)no1` (racemic) [Example 41, 3-(2-chlorophenyl)-1-(4-fluorophenyl)-N-[1-(5-methyl-1,2,4-oxadiazol-3-yl)ethyl]-1H-indazole-6-carboxamide] displayed an IC50 of 519 nM. With `O=C(NC1CCNC1=O)c1ccc2c(-c3ccccc3Cl)nn(-c3ccc(F)cc3)c2c1` (racemic) [Example 52, 3-(2-chlorophenyl)-1-(4-fluorophenyl)-N-(2-oxopyrrolidin-3-yl)-1H-indazole-6-carboxamide] the figure was 413 nM; with `O=C1CC(NC(=O)c2ccc3c(-c4ccccc4Cl)nn(-c4ccc(F)cc4)c3c2)C(=O)N1` (racemic) [Example 57, 3-(2-chlorophenyl)-N-(2,5-dioxopyrrolidin-3-yl)-1-(4-fluorophenyl)-1H-indazole-6-carboxamide], 669 nM.

`COC(=O)C1(NC(=O)c2ccc3c(-c4ccccc4Cl)nn(-c4ccc(F)cc4)c3c2)CCSC1` (racemic) [Example 59, methyl 3-({[3-(2-chlorophenyl)-1-(4-fluorophenyl)-1H-indazol-6-yl]carbonyl}amino)tetra-hydrothiophene-3-carboxylate] gave a half-inhibitory concentration (IC50) of 461 nM. With `O=C(NC1CCC(F)(F)C1)c1ccc2c(-c3ccccc3Cl)nn(-c3ccc(F)cc3)c2c1` (racemic) [Example 64, 3-(2-chlorophenyl)-N-(3,3-difluorocyclopentyl)-1-(4-fluorophenyl)-1H-indazole-6-carboxamide] the figure was 132 nM. `CCC(CO)NC(=O)c1ccc2c(-c3ccccc3Cl)nn(-c3ccc(F)cc3)c2c1` (racemic) [Example 65, 3-(2-chlorophenyl)-1-(4-fluorophenyl)-N-[1-(hydroxyinethyl)propyl]-1H-indazole-6-carboxamide] returned an IC50 of 170 nM. `O=C(N[C@@H]1CCCC[C@@H]1O)c1ccc2c(-c3ccccc3Cl)nn(-c3ccc(F)cc3)c2c1` (racemic) [Example 66] yielded an IC50 of 68 nM. As for `O=C(N[C@@H]1CCCC[C@H]1O)c1ccc2c(-c3ccccc3Cl)nn(-c3ccc(F)cc3)c2c1` (racemic) [Example 67], the figure is 40 nM; as for `O=C(NC1(CO)CCc2ccccc21)c1ccc2c(-c3ccccc3Cl)nn(-c3ccc(F)cc3)c2c1` (racemic) [Example 75, 3-(2-chlorophenyl)-1-(4-fluorophenyl)-N-[1-(hydroxymethyl)-2,3-dihydro-1H-inden-1-yl]-1H-indazole-6-carboxamide], 357 nM. With `O=C(NC1CCOC1)c1ccc2c(-c3ccccc3Cl)nn(-c3ccc(F)cc3)c2c1` (racemic) [Example 77, 3-(2-chlorophenyl)-1-(4-fluorophenyl)-N-(tetrahydrofuran-3-yl)-1H-indazole-6-carboxamide] the figure was 59 nM. With `O=C(NC(CO)C1CC1)c1ccc2c(-c3ccccc3Cl)nn(-c3ccc(F)cc3)c2c1` (racemic) [Example 78, 3-(2-chlorophenyl)-N-(1-cyclopropyl-2-hydroxyethyl)-1 (4-fluorophenyl)-1H-indazole-6-carboxamide] the figure was 353 nM. `O=C(NC1CCC(O)C1)c1ccc2c(-c3ccccc3Cl)nn(-c3ccc(F)cc3)c2c1` (racemic) [Example 83, 3-(2-chlorophenyl)-1-(4-fluorophenyl)-N-(3-hydroxycyclopentyl)-1H-indazole-6-carboxamide] had an IC50 of 276 nM. As for `COC(=O)C1(NC(=O)c2ccc3c(-c4ccccc4Cl)nn(-c4ccc(F)cc4)c3c2)CC[S+]([O-])C1` (racemic) [Example 89, methyl 3-({[3-(2-chlorophenyl)-1-(4-fluorophenyl)-1H-indazol-6-yl]carbonyl}amino)tetra-hydrothiophene-3-carboxylate 1-oxide], the figure is 125 nM. Regarding `COC(=O)C1(NC(=O)c2ccc3c(-c4ccccc4Cl)nn(-c4ccc(F)cc4)c3c2)CCS(=O)(=O)C1` (racemic) [Example 90, methyl 3-({[3-(2-chlorophenyl)-1-(4-fluorophenyl)-1H-indazol-6-yl]carbonyl}amino)tetra-hydrothiophene-3-carboxylate 1,1-dioxide], half-maximal inhibition (IC50) required 90 nM.

The compound `CC(C)(C)OC(=O)N1CCS(=O)(=O)CC(NC(=O)c2ccc3c(-c4ccccc4Cl)nn(-c4ccc(F)cc4)c3c2)C1` (racemic) [Example 91, tert-butyl 6-({[3-(2-chlorophenyl)-1-(4-fluorophenyl)-1H-indazol-6-yl]carbonyl}amino)-1,4-thiazepane-4-carboxylate 1,1-dioxide] came in with a 50% inhibitory concentration (IC50) of 572 nM. As for `O=C(NC1(CO)CCS(=O)(=O)C1)c1ccc2c(-c3ccccc3Cl)nn(-c3ccc(F)cc3)c2c1` (racemic) [Example 92, 3-(2-chlorophenyl)-1-(4-fluorophenyl)-N-[3-(hydroxymethyl)-1,1-dioxidotetrahydrothiophen-3-yl]-1H-indazole-6-carboxamide], the figure is 372 nM. With `O=C(NC1(CO)CCSC1)c1ccc2c(-c3ccccc3Cl)nn(-c3ccc(F)cc3)c2c1` (racemic) [Example 98, 3-(2-chlorophenyl)-1-(4-fluorophenyl)-N-[3-(hydroxymethyl)tetrahydrothiophen-3-yl]-1H-indazole-6-carboxamide] the figure was 45 nM.
